Measured values as given in patent publication US20260184708A1, “PYRIDAZINONES AND METHODS OF USE THEREOF” (GFB (ABC), LLC, priority 2017, published 2026).
Like-named read-outs stand apart in the source and are kept apart here. Values belong to the compound of their own block, whether it stands above or below them.

Molecular target: T1, TRPC5 (Homo sapiens, UniProt Q9UL62)
T1 construct: expressed in transfected cells; host or cells: HEK 293
T1 sequence (Q9UL62 1-973): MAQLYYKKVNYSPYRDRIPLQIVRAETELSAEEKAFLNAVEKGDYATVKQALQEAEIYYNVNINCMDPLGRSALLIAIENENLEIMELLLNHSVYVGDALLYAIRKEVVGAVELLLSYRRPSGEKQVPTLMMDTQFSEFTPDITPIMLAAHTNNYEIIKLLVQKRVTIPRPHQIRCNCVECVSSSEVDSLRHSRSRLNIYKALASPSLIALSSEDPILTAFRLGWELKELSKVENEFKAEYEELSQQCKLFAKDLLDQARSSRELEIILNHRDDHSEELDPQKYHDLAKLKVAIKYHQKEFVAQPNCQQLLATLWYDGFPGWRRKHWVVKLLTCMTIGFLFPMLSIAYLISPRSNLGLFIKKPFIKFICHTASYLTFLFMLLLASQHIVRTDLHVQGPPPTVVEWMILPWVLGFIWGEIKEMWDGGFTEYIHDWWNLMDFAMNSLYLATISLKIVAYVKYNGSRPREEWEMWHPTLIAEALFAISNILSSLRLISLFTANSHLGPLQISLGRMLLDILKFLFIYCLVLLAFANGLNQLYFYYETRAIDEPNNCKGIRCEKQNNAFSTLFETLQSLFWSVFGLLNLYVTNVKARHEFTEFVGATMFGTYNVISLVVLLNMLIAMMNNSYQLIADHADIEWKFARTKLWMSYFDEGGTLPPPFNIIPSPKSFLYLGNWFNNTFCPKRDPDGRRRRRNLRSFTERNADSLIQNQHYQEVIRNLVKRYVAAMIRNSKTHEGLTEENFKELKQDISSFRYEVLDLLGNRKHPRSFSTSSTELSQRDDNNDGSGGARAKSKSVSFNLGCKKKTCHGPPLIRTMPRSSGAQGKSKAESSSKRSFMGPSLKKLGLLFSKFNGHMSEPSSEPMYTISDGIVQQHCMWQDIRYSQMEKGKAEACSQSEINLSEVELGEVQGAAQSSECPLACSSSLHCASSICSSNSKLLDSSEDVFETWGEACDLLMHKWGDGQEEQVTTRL
Experiment: TRPC5 automated patch clamp assay (Qpatch), current block after rosiglitazone stimulation
Assay type: cell-based
Conditions: HEK293 cells overexpressing TRPC5, rosiglitazone stimulation
Experimental: HEK 293 cells expressing human TRPC5 were harvested, re-suspended in serum free medium, and added to the automated platform and used within 2-3 hours. Internal and external physiological solutions were freshly prepared prior to the assay. The external solution contained: 145 mM NaCl, 4 mM KCl, 2 mM CaCl2), 1 mM MgCl2, 10 mM HEPES, 10 mM glucose, pH 7.4 with NaOH and 300 mOsm/L. The internal solution contained 120 mM L-aspartic acid, 120 mM CsOH·H2O, 20 mM CsCl, 2 mM MgCl2, 8.8 mM CaCl2), 10 mM EGTA, 10 mM HEPES, 10 mM Glucose, 0.1 mM GTP and 2 mM Na2ATP; pH 7.2 with CsOH and 290 mOsm/L. The free internal Ca2+ concentration was buffered to 1 μM.
The automated electrophysiological platform QPatch 16 from Sophion (Denmark) was used to carry out the compounds profiling. The series resistance and quality of seals were continuously monitored during the experiments. Data was analyzed using Sophion QPatch assay software 5.6 (Odense). IC50 values were calculated using a least squares regression algorithm (Hill equation).
To monitor the ion currents, a voltage ramp from −100 mV to +100 mV, over 300 ms, was applied every 10 seconds, from a holding potential of −60 mV.
After recording for a minimum of 60 seconds control period, Rosiglitazone (30 uM), was applied to activate the channel.

[1] = Table 4, 80 mV, read-out: TRPC5_QP_ XC50_80
[2] = Table 4, 100 mV, read-out: TRPC5_QP_ XC50_100
[3] = Table 3, 80 mV, read-out: TRPC5_QP_ XC50_80
[4] = Table 3, 100 mV, read-out: TRPC5_QP_ XC50_100
[5] = Table 5, 80 mV, read-out: TRPC5_QP_ XC50_80
[6] = Table 5, 100 mV, read-out: TRPC5_QP_ XC50_100
[7] = 80 mV, read-out: TRPC5_QP XC50_80
[8] = 100 mV, read-out: TRPC5_QP XC50_100

IC50 [1]: 5 to 10 µM
IC50 [2]: 5 to 10 µM
Compound: Cc1ccccc1CN1CCN(c2c(Cl)cn[nH]c2=O)CC1

IC50 [1]: 1 to 5 µM
IC50 [2]: 1 to 5 µM
Compound: Cc1ccccc1[C@@H](C)N1CCN(c2cn[nH]c(=O)c2Cl)CC1

IC50 [3]: 1 to 5 µM
IC50 [4]: 1 to 5 µM
Compound: Cc1ccccc1CN1CCN(c2cn[nH]c(=O)c2Cl)CC1

IC50 [5]: 10 to 500 µM
IC50 [6]: 10 to 500 µM
Compound: O=C1CN(c2c(Cl)cn[nH]c2=O)CCN1Cc1cccc(C(F)(F)F)c1

IC50 [1]: 1 to 5 µM
IC50 [2]: 5 to 10 µM
Compound: O=C1CN(c2c(Cl)c(Br)n[nH]c2=O)CCN1Cc1ccccc1C(F)(F)F

IC50 [4]: 10 to 500 µM
Compound: Cc1ccccc1CN1CCN(c2cn[nH]c(=O)c2Br)CC1C (stereo not shown) [drawing 651]

IC50 [5]: 10 to 500 µM
IC50 [6]: 10 to 500 µM
Compound: O=C1CN(c2c(Cl)cn[nH]c2=O)CCN1Cc1cccc(OC(F)(F)F)c1

IC50 [3]: 5 to 10 µM
IC50 [4]: 5 to 10 µM
Compound: Cc1ccccc1CN1CCN(c2cn[nH]c(=O)c2OC2CCCC2)CC1=O

IC50 [5]: 5 to 10 µM
IC50 [6]: 5 to 10 µM
Compound: COc1ncccc1CN1CCN(c2cn[nH]c(=O)c2Cl)CC1=O

IC50 [3]: 5 to 10 µM
IC50 [4]: 5 to 10 µM
Compound: Cc1ccccc1CN1CCN(c2cn[nH]c(=O)c2C)CC1=O

IC50 [3]: 10 to 500 µM
IC50 [4]: 10 to 500 µM
Compound: COc1c(N2CCN(Cc3ccccc3C)C(=O)C2)cn[nH]c1=O

IC50 [1]: 1 to 5 µM
IC50 [2]: 1 to 5 µM
Compound: Cc1cc(F)ccc1CN1CCN(c2cn[nH]c(=O)c2Cl)CC1=O

IC50 [5]: 10 to 500 µM
IC50 [6]: 10 to 500 µM
Compound: O=C1CN(c2c(Cl)cn[nH]c2=O)CCN1Cc1ccc(F)cc1F

IC50 [5]: 10 to 500 µM
IC50 [6]: 10 to 500 µM
Compound: Cc1cc(F)ccc1CN1CCN(c2c(Br)n[nH]c(=O)c2Cl)CC1=O

IC50 [5]: 5 to 10 µM
IC50 [6]: 5 to 10 µM
Compound: O=C1CN(c2cn[nH]c(=O)c2Cl)CCN1Cc1ccc(OC(F)(F)F)cc1F

IC50 [5]: 10 to 500 µM
IC50 [6]: 10 to 500 µM
Compound: Cc1cc(F)ccc1CN1CCN(c2c(C)n[nH]c(=O)c2Cl)CC1=O

IC50 [1]: 1 to 5 µM
IC50 [2]: 1 to 5 µM
Compound: Cc1ccccc1CN1CCN(c2cn[nH]c(=O)c2Cl)C(C)C1 (stereo not shown)

Second part, the compound before the results:

Compound: C[C@@H]1CN(Cc2cccc3ccccc23)CCN1c1cn[nH]c(=O)c1Cl
IC50 [1]: 5 to 10 µM
IC50 [2]: 5 to 10 µM

Compound: C[C@@H]1CN(Cc2ccccc2C(F)(F)F)CCN1c1cn[nH]c(=O)c1Cl [drawing 716]
IC50 [1]: 1 to 5 µM
IC50 [2]: 1 to 5 µM

Compound: COc1n[nH]c(=O)cc1N1CCN(Cc2ccc(F)cc2C)CC1
IC50 [1]: 10 to 500 µM
IC50 [2]: 10 to 500 µM

Compound: O=c1[nH]ncc(N2C3CCC2CN(Cc2ccccc2)C3)c1Br
IC50 [7]: 10 to 500 µM
IC50 [8]: 10 to 500 µM

Compound: O=c1[nH]ncc(N2CCN(Cc3ccccc3)CC2)c1Br
IC50 [7]: 5 to 10 µM
IC50 [8]: 5 to 10 µM

Compound: CS(=O)(=O)N1CCN(c2cn[nH]c(=O)c2Br)CC1
IC50 [7]: 10 to 500 µM
IC50 [8]: 10 to 500 µM

Compound: Cc1cc(C(F)(F)F)ccc1CN1CCN(c2cn[nH]c(=O)c2Cl)CC1
IC50 [1]: 10 to 500 µM
IC50 [2]: 10 to 500 µM

Compound: CC(c1ccccc1)N1CCN(c2cn[nH]c(=O)c2Br)CC1 (stereo not shown)
IC50 [7]: 1 to 5 µM
IC50 [8]: 5 to 10 µM

Compound: O=c1[nH]ncc(N2CCN(CC(F)(F)F)CC2)c1Br
IC50 [3]: 10 to 500 µM
IC50 [4]: 10 to 500 µM

Compound: Cc1cc(F)ccc1CN1CCN(c2cc(=O)[nH]nc2-c2ccccc2)CC1
IC50 [5]: 1 to 5 µM
IC50 [6]: 1 to 5 µM

Compound: O=c1[nH]ncc(N2CCN(Cc3ccc(C(F)(F)F)cc3)CC2)c1Cl
IC50 [3]: 10 to 500 µM
IC50 [4]: 10 to 500 µM

Compound: Cc1ccccc1CN1C2CC1CN(c1cn[nH]c(=O)c1Br)C2
IC50 [3]: 10 to 500 µM
IC50 [4]: 10 to 500 µM

Compound: O=c1[nH]ncc(Cl)c1N1CCN(Cc2ccccc2OC(F)(F)F)CC1
IC50 [1]: 5 to 10 µM
IC50 [2]: 5 to 10 µM

Compound: Cn1ncc2c(CN3CCN(c4cn[nH]c(=O)c4Cl)CC3)cccc21
IC50 [1]: 10 to 500 µM
IC50 [2]: 10 to 500 µM
